Data published in ChEMBL document CHEMBL1201862, “PubChem BioAssay data set” (2004).
Calls of active or inactive are those of the source.

Columns and labels:
Cytochrome P450 2C19 = Cytochrome P450 2C19 (Homo sapiens, UniProt P33261); test: Cytochrome panel assay with activity outcomes. Panel member name: p450-cyp2c19 Compounds with AC50 equal or less than 10 uM are considered active; type: functional; settings: read-out: AC50
Cytochrome P450 3A4 = Cytochrome P450 3A4 (Homo sapiens, UniProt P08684);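 further: CYP3A4 tested as one member of a cytochrome P450 panel screen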
[1] = target: T1, Microphthalmia-associated transcription factor (Homo sapiens, UniProt O75030); test: TRPM1 promoter luciferase signal decrease, dose response, MITF inhibitor project, cell-based, SK-MEL-5, cherry-picked, set 3 (AID 493073); type: functional
T1 sequence (O75030 whole entry): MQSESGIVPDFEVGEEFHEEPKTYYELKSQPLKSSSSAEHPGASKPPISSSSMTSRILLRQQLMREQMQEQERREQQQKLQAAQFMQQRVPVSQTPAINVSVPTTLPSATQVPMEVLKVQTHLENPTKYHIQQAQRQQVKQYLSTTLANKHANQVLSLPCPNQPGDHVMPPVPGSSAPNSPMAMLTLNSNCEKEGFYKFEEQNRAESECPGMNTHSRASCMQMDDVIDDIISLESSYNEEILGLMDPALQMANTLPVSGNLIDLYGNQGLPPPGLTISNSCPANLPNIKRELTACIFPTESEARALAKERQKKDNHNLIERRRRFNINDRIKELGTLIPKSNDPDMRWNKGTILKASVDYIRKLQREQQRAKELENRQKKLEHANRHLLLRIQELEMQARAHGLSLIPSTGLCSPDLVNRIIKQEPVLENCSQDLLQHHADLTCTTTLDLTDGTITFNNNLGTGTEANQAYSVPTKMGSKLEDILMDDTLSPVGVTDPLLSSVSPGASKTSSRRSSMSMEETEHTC

[2] = target: 26S proteasome non-ATPase regulatory subunit 14 (Homo sapiens, UniProt O00487); test: inhibition of proteasome subunit RPN11 – biochemical, fluorescence polarization, uHTS hits, confirmation (AID 602368); type: functional
[3] = growth suppression of PTEN-null colon cells, dose response, cell-based, HCT116 PTEN knockout (AID 1047); type: functional;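 further: HCT116 colon tumor cells with PTEN knocked out; cells exposed to compound for 60 hours before readout; potency for loss of cell viability measured by luminescence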
[4] = target: 72 kDa type IV collagenase (Homo sapiens, UniProt P08253); test: Dose Response validation of uHTS RPN11 inhibitor hits using a MMP-2 Fluorescence assay.; type: functional
[5] = inhibitors of intracellular T. cruzi replication, confirmation, NIH3T3 host cells, beta-gal luminescence (AID 2044); type: functional, cell-based;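 further: intracellular parasites grown in NIH/3T3 mouse fibroblasts as host cells; luminescent beta-galactosidase reporter signal from transgenic T. cruzi replicating inside host cells; inhibitors lower the luminescence signal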
[6] = growth suppression of beta-catenin-knockout colon cells, dose response, cell-based, HCT116, human colon tumor (AID 1045); type: functional;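 further: HCT116 colon tumor cells with beta catenin knocked out; cells exposed to compound for 60 hours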
Prothrombin = Prothrombin (Bos taurus, UniProt P00735); test: thrombin inhibition, dose response, biochemical, fluorescence polarization, uHTS hits (AID 602369); type: functional
[7] = cytotoxicity toward NIH3T3 fibroblasts, dose response, counter-screen, cell-based, ATP luminescence, mouse fibroblasts (AID 2010); type: functional;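 further: cells exposed to compound for about 90 hours before reading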
INS1 = test: beta cell apoptosis inhibitors, cytokine rescue, dose response, luminescence, retest (AID 449756); type: functional, cell-based; settings: Rattus norvegicus;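 further: cell death triggered by IL-1 beta plus TNF-alpha plus IFN-gamma mixture; protective hits raise ATP signal compared with cytokine alone wells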
[8] = NIH-3T3 fibroblast cytotoxicity, dose response, cytotoxicity control, cell-based, fluorescence, Alamar Blue, secondary assay (AID 2327); type: functional;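 further: NIH-3T3 mouse fibroblasts cultured with fluconazole at 8 µg/mL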
[9] = C. albicans growth with fluconazole, confirmation, fluorescence, retest (AID 2467); type: functional, cell-based
[10] = target: T2, Probable nicotinate-nucleotide adenylyltransferase (Staphylococcus aureus (strain N315), UniProt P65502); type: functional, Staphylococcus aureus subsp. aureus N315; settings: read-out: IC50_Mean;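 on IC50 Mean: confirmatory dose-response retesting of NadD inhibitor hits first found in an ultra-high-throughput screen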
[11] = target: T2, Probable nicotinate-nucleotide adenylyltransferase; type: functional, Staphylococcus aureus subsp. aureus N315
Kallikrein-7 = Kallikrein-7 (Homo sapiens, UniProt P49862); test: Fluorescence Intensity-based biochemical primary high throughput dose response assay to identify activators of kallikrein-7 (K7) zymogen.
[12] = target: T3, Low molecular weight phosphotyrosine protein phosphatase (Homo sapiens, UniProt P24666); type: functional; settings: read-out: IC50_Mean;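 further: Dose-response confirmation assay measuring inhibition of LMPTP enzyme activity by fluorescence intensity read-out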
T3 sequence (P24666 whole entry): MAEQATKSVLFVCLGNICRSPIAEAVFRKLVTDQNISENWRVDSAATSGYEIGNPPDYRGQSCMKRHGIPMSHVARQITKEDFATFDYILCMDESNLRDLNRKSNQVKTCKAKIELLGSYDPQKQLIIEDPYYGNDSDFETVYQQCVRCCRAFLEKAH

[13] = target: T4, Zinc finger protein mex-5 (Caenorhabditis elegans, UniProt Q9XUB2); test: MEX-5/TCR-2 RNA interaction inhibitors, dose response, biochemical, C. elegans, fluorescence polarization (AID 1960)
T4 sequence (Q9XUB2 whole entry): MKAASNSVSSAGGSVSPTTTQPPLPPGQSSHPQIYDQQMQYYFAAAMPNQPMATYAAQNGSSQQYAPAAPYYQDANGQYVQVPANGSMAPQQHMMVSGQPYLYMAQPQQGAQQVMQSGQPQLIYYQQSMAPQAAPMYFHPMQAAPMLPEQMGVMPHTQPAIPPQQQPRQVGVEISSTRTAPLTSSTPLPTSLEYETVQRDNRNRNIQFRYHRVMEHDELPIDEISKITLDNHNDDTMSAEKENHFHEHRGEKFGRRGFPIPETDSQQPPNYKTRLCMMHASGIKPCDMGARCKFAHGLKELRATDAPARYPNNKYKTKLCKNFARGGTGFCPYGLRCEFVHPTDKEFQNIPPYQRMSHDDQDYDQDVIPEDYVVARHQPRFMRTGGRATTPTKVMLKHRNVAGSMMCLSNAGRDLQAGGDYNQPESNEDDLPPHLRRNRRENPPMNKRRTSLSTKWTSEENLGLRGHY

[14] = target: T5, RNA-binding protein pos-1 (Caenorhabditis elegans, UniProt G5EF15); test: inhibitors of POS-1/mex-3 RNA binding, dose response, biochemical, fluorescence polarization (AID 1964);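 further: purified POS-1 fused to maltose binding protein made in E. coli; potency of compounds blocking POS-1 binding to fluorescent RNA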
T5 sequence (G5EF15 whole entry): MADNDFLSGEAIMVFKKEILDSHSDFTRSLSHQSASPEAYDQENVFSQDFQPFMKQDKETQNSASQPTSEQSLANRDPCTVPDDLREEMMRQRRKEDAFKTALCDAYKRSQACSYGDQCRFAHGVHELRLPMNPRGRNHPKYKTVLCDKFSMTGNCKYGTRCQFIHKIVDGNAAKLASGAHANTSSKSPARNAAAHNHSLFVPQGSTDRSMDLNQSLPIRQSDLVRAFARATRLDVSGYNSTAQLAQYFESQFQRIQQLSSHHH

T2 sequence (P65502 whole entry): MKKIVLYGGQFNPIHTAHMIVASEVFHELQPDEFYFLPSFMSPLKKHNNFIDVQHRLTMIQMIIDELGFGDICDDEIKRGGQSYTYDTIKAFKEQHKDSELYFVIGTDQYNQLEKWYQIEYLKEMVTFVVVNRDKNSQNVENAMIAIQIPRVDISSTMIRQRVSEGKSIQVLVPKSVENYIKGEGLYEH
Chain of 72 kDa type IV collagenase (P08253 whole entry): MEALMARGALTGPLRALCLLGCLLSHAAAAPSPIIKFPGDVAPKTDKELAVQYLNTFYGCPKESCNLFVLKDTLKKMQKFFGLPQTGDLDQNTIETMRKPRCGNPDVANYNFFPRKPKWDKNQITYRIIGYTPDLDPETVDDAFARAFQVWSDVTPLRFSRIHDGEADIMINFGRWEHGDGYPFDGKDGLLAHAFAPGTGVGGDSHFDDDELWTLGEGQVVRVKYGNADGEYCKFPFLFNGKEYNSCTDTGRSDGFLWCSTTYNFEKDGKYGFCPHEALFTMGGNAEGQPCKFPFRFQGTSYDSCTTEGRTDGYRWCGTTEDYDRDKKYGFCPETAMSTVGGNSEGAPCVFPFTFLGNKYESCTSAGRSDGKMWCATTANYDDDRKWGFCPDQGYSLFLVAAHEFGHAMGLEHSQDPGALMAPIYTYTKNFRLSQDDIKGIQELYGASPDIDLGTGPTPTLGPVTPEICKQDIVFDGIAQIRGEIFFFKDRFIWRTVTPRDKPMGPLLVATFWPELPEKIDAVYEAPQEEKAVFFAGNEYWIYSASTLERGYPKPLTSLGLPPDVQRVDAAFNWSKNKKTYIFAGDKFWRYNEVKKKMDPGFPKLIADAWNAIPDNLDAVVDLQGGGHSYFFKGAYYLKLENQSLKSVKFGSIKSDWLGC
Chain of 26S proteasome non-ATPase regulatory subunit 14 (O00487 whole entry): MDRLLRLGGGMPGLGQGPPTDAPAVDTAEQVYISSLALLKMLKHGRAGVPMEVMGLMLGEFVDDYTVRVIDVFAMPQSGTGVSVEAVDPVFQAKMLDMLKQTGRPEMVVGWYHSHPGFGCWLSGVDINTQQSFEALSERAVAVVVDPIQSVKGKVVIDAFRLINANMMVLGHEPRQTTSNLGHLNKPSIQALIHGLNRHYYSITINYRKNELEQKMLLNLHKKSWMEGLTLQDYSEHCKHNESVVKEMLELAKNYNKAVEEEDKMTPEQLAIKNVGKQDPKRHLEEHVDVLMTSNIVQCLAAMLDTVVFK
Chain of Cytochrome P450 2C19 (P33261 whole entry): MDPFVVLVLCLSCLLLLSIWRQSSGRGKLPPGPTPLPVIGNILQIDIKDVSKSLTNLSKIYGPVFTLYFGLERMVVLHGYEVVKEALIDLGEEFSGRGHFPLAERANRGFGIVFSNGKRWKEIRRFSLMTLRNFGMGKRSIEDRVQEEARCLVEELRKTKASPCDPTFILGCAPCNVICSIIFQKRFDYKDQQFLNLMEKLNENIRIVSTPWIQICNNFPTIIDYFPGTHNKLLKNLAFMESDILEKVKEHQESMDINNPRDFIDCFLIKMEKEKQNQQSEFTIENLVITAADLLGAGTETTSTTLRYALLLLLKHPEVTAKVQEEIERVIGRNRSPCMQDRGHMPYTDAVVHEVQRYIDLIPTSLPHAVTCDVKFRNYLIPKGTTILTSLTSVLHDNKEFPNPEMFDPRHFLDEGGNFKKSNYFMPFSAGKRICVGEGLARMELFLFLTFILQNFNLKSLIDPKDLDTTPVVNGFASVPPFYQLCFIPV
Chain of Cytochrome P450 3A4 (P08684 whole entry): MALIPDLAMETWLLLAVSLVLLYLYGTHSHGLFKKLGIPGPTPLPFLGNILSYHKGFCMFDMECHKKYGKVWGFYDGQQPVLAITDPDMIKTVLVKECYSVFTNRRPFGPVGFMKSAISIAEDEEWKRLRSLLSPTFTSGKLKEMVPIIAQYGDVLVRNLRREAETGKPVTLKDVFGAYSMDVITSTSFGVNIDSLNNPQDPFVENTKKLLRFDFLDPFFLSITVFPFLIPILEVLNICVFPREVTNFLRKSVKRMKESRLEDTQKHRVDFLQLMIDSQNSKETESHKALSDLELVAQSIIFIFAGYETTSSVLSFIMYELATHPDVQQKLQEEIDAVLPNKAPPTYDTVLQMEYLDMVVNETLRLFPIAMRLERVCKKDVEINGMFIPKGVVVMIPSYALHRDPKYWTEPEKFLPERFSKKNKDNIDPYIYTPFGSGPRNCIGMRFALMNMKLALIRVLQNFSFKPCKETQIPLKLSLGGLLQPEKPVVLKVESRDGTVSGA
Chain of Kallikrein-7 (P49862 whole entry): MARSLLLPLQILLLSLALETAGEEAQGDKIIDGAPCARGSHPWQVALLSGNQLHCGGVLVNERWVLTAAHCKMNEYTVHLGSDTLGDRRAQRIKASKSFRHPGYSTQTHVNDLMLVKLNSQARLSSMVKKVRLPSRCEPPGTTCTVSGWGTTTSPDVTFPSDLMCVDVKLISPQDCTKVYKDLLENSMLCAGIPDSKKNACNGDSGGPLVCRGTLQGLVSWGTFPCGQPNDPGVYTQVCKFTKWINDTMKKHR

With `Cc1cc2ncn(/N=C/c3ccc([N+](=O)[O-])o3)c2cc1C` the AC50 (Cytochrome P450 2C19) was 1.12 µM (inconclusive), the AC50 (Cytochrome P450 3A4) was 15.8 µM (inconclusive) and the AC50 [1] was 21.9 µM (active). The IC50 [2] was 73.6 µM (active), the EC50 [3] was 6.44 µM (active) and the IC50 [4] was > 100 µM (inactive). The EC50 [5] was 0.195 µM (active), the EC50 [6] was 5.7 µM (active) and the IC50 (Prothrombin) was 51.4 µM (active). The EC50 [7] was 15.5 µM (active).
In the case of `O=C(N/N=C/c1sc(N2CCOCC2)nc1-c1ccccc1)c1cccc(S(=O)(=O)N2CCCC2)c1`, the AC50 (INS1) was 2.44 µM (active), the IC50 [2] was 19.6 µM (active) and the EC50 [8] was 49.2 µM (active). The IC50 [4] was > 100 µM (inactive), the IC50 (Prothrombin) was 24.5 µM (active) and the EC50 [9] was 3.31 µM (active).
With `O=C(N/N=C/C=C\c1ccccc1[N+](=O)[O-])c1cc(-c2ccc3ccccc3c2)[nH]n1` the IC50 [10] was 74.3 µM (active) and the IC50 [11] was 22.5 µM (active).
In the case of `N#C/C(=C/c1ccc(-c2ccc(S(N)(=O)=O)cc2)o1)C(=O)Nc1ccccc1`, the EC50 (Kallikrein-7) was 9.54 µM (active).
In the case of `Cc1cc(N2CCN(C(C(=O)NC3CCCC3)c3ccco3)CC2)c2ccccc2n1` (centres undefined), the IC50 [12] was 27.3 µM (inactive).
For `CCCCC1=CC2=CC(=O)C(C)(OC(=O)CC)C(=O)C2=CO1` (centres undefined), the EC50 [13] was 21.6 µM (active), the IC50 [10] was 24 µM (active) and the IC50 [11] was 9.32 µM (active). For the same compound, the EC50 [14] was 27.8 µM (active).
